In article PMC5852498, “Lactomycins A–C, Dephosphorylated Phoslactomycin Derivatives That Inhibit Cathepsin B, from the Marine-Derived Streptomyces sp. ACT232” (Marine Drugs, 2018):
Like-named read-outs stand apart in the source and are kept apart here.

Biological target: T1, cathepsin B (Bos taurus, UniProt P07688)
T1 construct: gene CTSB; cathepsin B from bovine spleen (Sigma C6286)
Experiment: fluorogenic enzyme assay with Z-Arg-Arg-AMC, pH […] °C
Format: biochemical

SMILES	IC50 (read-out: IC50) [nM]	IC50 [nM]
CC[C@H]1C=CC(=O)O[C@H]1/C=C/[C@](O)(CCO)[C@H](O)C[C@@H](O)/C=C\C=C/[C@@H]1CCC[C@H](O)C1 [compound 1, Lactomycin A]	4500	–
CC[C@H]1C=CC(=O)O[C@H]1/C=C/[C@](O)(CCN)[C@H](O)C[C@@H](O)/C=C\C=C/[C@@H]1CCC[C@H](O)C1 [compound 2, Lactomycin B]	800	–
CC[C@H]1C=CC(=O)O[C@H]1/C=C/[C@@](C)(O)[C@H](O)C[C@@H](O)/C=C\C=C/[C@@H]1CCC[C@H](O)C1 [compound 3, Lactomycin C]	–	1600
